In brackets after ≈: the same amount, converted by molar mass.
Experiments:
Staphylococcus aureus [1] = experiment: Antibacterial activity against inducible macrolide-lincosamide-streptogramin B-resistant Staphylococcus aureus B0538 by agar microdilution method; format: functional
Staphylococcus aureus [2] = experiment: Antibacterial activity against constitutive macrolide-lincosamide-streptogramin B-resistant Staphylococcus aureus B0330 by agar microdilution method; format: functional
Staphylococcus aureus [3] = experiment: Antibacterial activity against efflux-resistant Staphylococcus aureus B0331 by agar microdilution method; format: functional
Streptococcus pneumoniae [4] = experiment: Antibacterial activity against constitutive macrolide-lincosamide-streptogramin B-resistant Streptococcus pneumoniae B0627 by agar microdilution method; format: functional
Streptococcus pneumoniae [5] = experiment: Antibacterial activity against efflux-resistant Streptococcus pneumoniae B0326 by agar microdilution method; format: functional
Streptococcus pyogenes [6] = experiment: Antibacterial activity against inducible macrolide-lincosamide-streptogramin B-resistant Streptococcus pyogenes B0543 by agar microdilution method; format: functional
Streptococcus pyogenes [7] = experiment: Antibacterial activity against constitutive macrolide-lincosamide-streptogramin B-resistant Streptococcus pyogenes B0544 by agar microdilution method; format: functional
Streptococcus pyogenes [8] = experiment: Antibacterial activity against efflux-resistant Streptococcus pyogenes B0545 by agar microdilution method; format: functional
Moraxella catarrhalis = experiment: Antibacterial activity against Moraxella catarrhalis B0324 by agar microdilution method; format: functional
Haemophilus influenzae = experiment: Antibacterial activity against Haemophilus influenzae B0529 by agar microdilution method; format: functional
Staphylococcus aureus [9] = experiment: Antibacterial activity against erythromycin A-susceptible Staphylococcus aureus B0329 by agar microdilution method
Streptococcus pneumoniae [10] = experiment: Antibacterial activity against erythromycin-susceptible Streptococcus pneumoniae B0541 by agar microdilution method
Streptococcus pyogenes [11] = experiment: Antibacterial activity against erythromycin A-susceptible Streptococcus pyogenes B0542 by agar microdilution method

| Structure (SMILES) | MIC (Staphylococcus aureus [1]) | MIC (Staphylococcus aureus [2]) | MIC (Staphylococcus aureus [3]) | MIC (Streptococcus pneumoniae [4]) | MIC (Streptococcus pneumoniae [5]) | MIC (Streptococcus pyogenes [6]) | MIC (Streptococcus pyogenes [7]) | MIC (Streptococcus pyogenes [8]) | MIC (Moraxella catarrhalis) | MIC (Haemophilus influenzae) | MIC (Staphylococcus aureus [9]) | MIC (Streptococcus pneumoniae [10]) | MIC (Streptococcus pyogenes [11]) |
| --- | --- | --- | --- | --- | --- | --- | --- | --- | --- | --- | --- | --- | --- |
| CC[C@H]1OC(=O)[C@H](C)C(=O)[C@H](C)[C@@H](O[C@@H]2O[C@H](C)C[C@H](N(C)C)[C@H]2O)[C@](C)(OC[C@@H](O)CNCCNc2ccc3ncccc3c2)C[C@@H](C)NC(=O)[C@H](C)[C@@H](O)[C@]1(C)O | 0.25 µg/mL (≈ 0.3 µM) | > 64 µg/mL | 0.25 µg/mL (≈ 0.3 µM) | ≤ 0.125 µg/mL | ≤ 0.125 µg/mL | ≤ 0.125 µg/mL | 1 µg/mL (≈ 1.2 µM) | 0.5 µg/mL (≈ 0.601 µM) | ≤ 0.125 µg/mL | 0.25 µg/mL (≈ 0.3 µM) | ≤ 0.125 µg/mL | ≤ 0.125 µg/mL | ≤ 0.125 µg/mL |
| CC[C@H]1OC(=O)[C@H](C)C(=O)[C@H](C)[C@@H](O[C@@H]2O[C@H](C)C[C@H](N(C)C)[C@H]2O)[C@](C)(OC[C@H](O)CNCCNc2ccc3ncccc3c2)C[C@@H](C)NC(=O)[C@H](C)[C@@H](O)[C@]1(C)O | 0.25 µg/mL (≈ 0.3 µM) | > 64 µg/mL | 0.5 µg/mL (≈ 0.601 µM) | 0.5 µg/mL (≈ 0.601 µM) | 0.25 µg/mL (≈ 0.3 µM) | 0.5 µg/mL (≈ 0.601 µM) | 4 µg/mL (≈ 4.81 µM) | 0.5 µg/mL (≈ 0.601 µM) | 0.5 µg/mL (≈ 0.601 µM) | 0.5 µg/mL (≈ 0.601 µM) | ≤ 0.125 µg/mL | ≤ 0.125 µg/mL | ≤ 0.125 µg/mL |
| CC[C@H]1OC(=O)[C@H](C)C(=O)[C@H](C)[C@@H](O[C@@H]2O[C@H](C)C[C@H](N(C)C)[C@H]2O)[C@](C)(OCC(O)CN2CCN(c3cnc4ccccc4c3)CC2)C[C@@H](C)NC(=O)[C@H](C)[C@@H](O)[C@]1(C)O (stereo partly drawn) | 2 µg/mL (≈ 2.33 µM) | > 64 µg/mL | 0.5 µg/mL (≈ 0.583 µM) | 4 µg/mL (≈ 4.66 µM) | 1 µg/mL (≈ 1.17 µM) | 8 µg/mL (≈ 9.32 µM) | 32 µg/mL (≈ 37.3 µM) | 4 µg/mL (≈ 4.66 µM) | 4 µg/mL (≈ 4.66 µM) | 8 µg/mL (≈ 9.32 µM) | 1 µg/mL (≈ 1.17 µM) | ≤ 0.125 µg/mL | ≤ 0.125 µg/mL |
| CC[C@H]1OC(=O)[C@H](C)C(=O)[C@H](C)[C@@H](O[C@@H]2O[C@H](C)C[C@H](N(C)C)[C@H]2O)[C@](C)(OCC(O)CN2CCN(c3ccc4ncccc4c3)CC2)C[C@@H](C)NC(=O)[C@H](C)[C@@H](O)[C@]1(C)O (stereo partly drawn) | 0.25 µg/mL (≈ 0.291 µM) | > 64 µg/mL | 2 µg/mL (≈ 2.33 µM) | 1 µg/mL (≈ 1.17 µM) | 0.5 µg/mL (≈ 0.583 µM) | 0.25 µg/mL (≈ 0.291 µM) | 4 µg/mL (≈ 4.66 µM) | 2 µg/mL (≈ 2.33 µM) | 1 µg/mL (≈ 1.17 µM) | 2 µg/mL (≈ 2.33 µM) | 0.25 µg/mL (≈ 0.291 µM) | ≤ 0.125 µg/mL | ≤ 0.125 µg/mL |
| CC[C@H]1OC(=O)[C@H](C)C(=O)[C@H](C)[C@@H](O[C@@H]2O[C@H](C)C[C@H](N(C)C)[C@H]2O)[C@](C)(OCC(O)CNCCc2ccccn2)C[C@@H](C)NC(=O)[C@H](C)[C@@H](O)[C@]1(C)O (mixture of isomers) | 8 µg/mL | > 64 µg/mL | 8 µg/mL | 8 µg/mL | 16 µg/mL | 4 µg/mL | 32 µg/mL | 4 µg/mL | 4 µg/mL | 32 µg/mL | 8 µg/mL | 1 µg/mL | 0.25 µg/mL |
| CC[C@H]1OC(=O)[C@H](C)C(=O)[C@H](C)[C@@H](O[C@@H]2O[C@H](C)C[C@H](N(C)C)[C@H]2O)[C@](C)(OCC(O)CNCCc2ccccc2)C[C@@H](C)NC(=O)[C@H](C)[C@@H](O)[C@]1(C)O (mixture of isomers) | 16 µg/mL | > 64 µg/mL | 8 µg/mL | 8 µg/mL | 16 µg/mL | 1 µg/mL | 16 µg/mL | 1 µg/mL | 0.5 µg/mL | 16 µg/mL | 4 µg/mL | 0.25 µg/mL | 0.5 µg/mL |
| CC[C@H]1OC(=O)[C@H](C)C(=O)[C@H](C)[C@@H](O[C@@H]2O[C@H](C)C[C@H](N(C)C)[C@H]2O)[C@](C)(OCC(O)CNCCCCc2ccccc2)C[C@@H](C)NC(=O)[C@H](C)[C@@H](O)[C@]1(C)O (mixture of isomers) | 2 µg/mL | > 64 µg/mL | 2 µg/mL | 1 µg/mL | 4 µg/mL | 0.5 µg/mL | 8 µg/mL | 0.5 µg/mL | ≤ 0.125 µg/mL | 8 µg/mL | 2 µg/mL | ≤ 0.125 µg/mL | 0.25 µg/mL |
| CC[C@H]1OC(=O)[C@H](C)C(=O)[C@H](C)[C@@H](O[C@@H]2O[C@H](C)C[C@H](N(C)C)[C@H]2O)[C@](C)(OCC(O)CN[C@H](C)Cc2ccc(OC)cc2)C[C@@H](C)NC(=O)[C@H](C)[C@@H](O)[C@]1(C)O (mixture of isomers) | 2 µg/mL | > 64 µg/mL | 4 µg/mL | 2 µg/mL | 16 µg/mL | 1 µg/mL | 8 µg/mL | 1 µg/mL | 0.5 µg/mL | 16 µg/mL | 1 µg/mL | ≤ 0.125 µg/mL | 0.5 µg/mL |
| CC[C@H]1OC(=O)[C@H](C)C(=O)[C@H](C)[C@@H](O[C@@H]2O[C@H](C)C[C@H](N(C)C)[C@H]2O)[C@](C)(OCC(O)CNCCc2ccc([N+](=O)[O-])cc2)C[C@@H](C)NC(=O)[C@H](C)[C@@H](O)[C@]1(C)O (mixture of isomers) | 1 µg/mL | > 64 µg/mL | 1 µg/mL | ≤ 0.125 µg/mL | 0.5 µg/mL | 0.25 µg/mL | 1 µg/mL | 0.25 µg/mL | ≤ 0.125 µg/mL | 1 µg/mL | ≤ 0.125 µg/mL | ≤ 0.125 µg/mL | ≤ 0.125 µg/mL |
| CC[C@H]1OC(=O)[C@H](C)C(=O)[C@H](C)[C@@H](O[C@@H]2O[C@H](C)C[C@H](N(C)C)[C@H]2O)[C@](C)(OCC(O)CN[C@H](C)Cc2ccc([N+](=O)[O-])cc2)C[C@@H](C)NC(=O)[C@H](C)[C@@H](O)[C@]1(C)O (mixture of isomers) | 2 µg/mL | > 64 µg/mL | 2 µg/mL | 2 µg/mL | 1 µg/mL | 0.5 µg/mL | 4 µg/mL | 0.5 µg/mL | 0.25 µg/mL | 1 µg/mL | 0.5 µg/mL | ≤ 0.125 µg/mL | ≤ 0.125 µg/mL |
| CC[C@H]1OC(=O)[C@H](C)C(=O)[C@H](C)[C@@H](O[C@@H]2O[C@H](C)C[C@H](N(C)C)[C@H]2O)[C@](C)(OCC(O)CN2CCN(c3cccc(C(F)(F)F)c3)CC2)C[C@@H](C)NC(=O)[C@H](C)[C@@H](O)[C@]1(C)O (mixture of isomers) | 4 µg/mL | > 64 µg/mL | 4 µg/mL | 16 µg/mL | 4 µg/mL | 4 µg/mL | 16 µg/mL | 2 µg/mL | 1 µg/mL | 16 µg/mL | 4 µg/mL | 0.5 µg/mL | ≤ 0.125 µg/mL |
| CC[C@H]1OC(=O)[C@H](C)C(=O)[C@H](C)[C@@H](O[C@@H]2O[C@H](C)C[C@H](N(C)C)[C@H]2O)[C@](C)(OCC(O)CN2CCN(c3ccc(C(C)=O)cc3)CC2)C[C@@H](C)NC(=O)[C@H](C)[C@@H](O)[C@]1(C)O (mixture of isomers) | 4 µg/mL | > 64 µg/mL | 2 µg/mL | 32 µg/mL | 2 µg/mL | 8 µg/mL | 32 µg/mL | 4 µg/mL | 4 µg/mL | 16 µg/mL | 2 µg/mL | 1 µg/mL | 0.5 µg/mL |
| CCOc1ccccc1N1CCN(CC(O)CO[C@]2(C)C[C@@H](C)NC(=O)[C@H](C)[C@@H](O)[C@](C)(O)[C@@H](CC)OC(=O)[C@H](C)C(=O)[C@H](C)[C@H]2O[C@@H]2O[C@H](C)C[C@H](N(C)C)[C@H]2O)CC1 (mixture of isomers) | 2 µg/mL | > 64 µg/mL | 4 µg/mL | 16 µg/mL | 8 µg/mL | 8 µg/mL | 16 µg/mL | 4 µg/mL | 2 µg/mL | 32 µg/mL | 2 µg/mL | 0.5 µg/mL | ≤ 0.125 µg/mL |
| CC[C@H]1OC(=O)[C@H](C)C(=O)[C@H](C)[C@@H](O[C@@H]2O[C@H](C)C[C@H](N(C)C)[C@H]2O)[C@](C)(OCC(O)CNCc2cnc3ccccc3c2)C[C@@H](C)NC(=O)[C@H](C)[C@@H](O)[C@]1(C)O (mixture of isomers) | 2 µg/mL | > 64 µg/mL | 0.5 µg/mL | 8 µg/mL | 4 µg/mL | 4 µg/mL | 8 µg/mL | 8 µg/mL | 2 µg/mL | 4 µg/mL | 1 µg/mL | ≤ 0.125 µg/mL | ≤ 0.125 µg/mL |
| CC[C@H]1OC(=O)[C@H](C)C(=O)[C@H](C)[C@@H](O[C@@H]2O[C@H](C)C[C@H](N(C)C)[C@H]2O)[C@](C)(OCC(O)CNCCNc2cnc3ccccc3c2)C[C@@H](C)NC(=O)[C@H](C)[C@@H](O)[C@]1(C)O (mixture of isomers) | 1 µg/mL | > 64 µg/mL | 0.25 µg/mL | 1 µg/mL | 0.25 µg/mL | 1 µg/mL | 4 µg/mL | 0.5 µg/mL | ≤ 0.125 µg/mL | 1 µg/mL | 1 µg/mL | ≤ 0.125 µg/mL | ≤ 0.125 µg/mL |
| CC[C@H]1OC(=O)[C@H](C)[C@@H](O[C@H]2C[C@@](C)(OC)[C@@H](O)[C@H](C)O2)[C@H](C)[C@@H](O[C@@H]2O[C@H](C)C[C@H](N(C)C)[C@H]2O)[C@](C)(O)C[C@@H](C)CN(C)[C@H](C)[C@@H](O)[C@]1(C)O [AZITHROMYCIN] | > 64 µg/mL | > 64 µg/mL | > 64 µg/mL | > 64 µg/mL | 4 µg/mL (≈ 5.34 µM) | 8 µg/mL (≈ 10.7 µM) | > 64 µg/mL | 1 µg/mL (≈ 1.34 µM) | 0.25 µg/mL (≈ 0.334 µM) | 1 µg/mL (≈ 1.34 µM) | 1 µg/mL (≈ 1.34 µM) | ≤ 0.125 µg/mL | ≤ 0.125 µg/mL |

Source: ChEMBL document CHEMBL1212927, “Synthesis and structure-activity relationships of novel 8a-aza-8a-homoerythromycin A ketolides” (2010)
